Each block holds one compound with its values, some of them ahead of it.
What was measured:
Assay in all cases: Apparent affinity (EC50) of energy transfer probes by titration onto live HEK293 cells expressing kinase/Nluc fusions (Table S1)
Format in all cases: binding
[1] = target: full-length kinase/Nluc fusion proteins (Homo sapiens, UniProt P08631); conditions: HCK, Nluc C; read-out: Probe EC50
[2] = target: full-length kinase/Nluc fusion proteins (Homo sapiens, UniProt P21709); conditions: EPHA1, Nluc C; read-out: Probe EC50
[3] = target: full-length kinase/Nluc fusion proteins (Homo sapiens, UniProt Q16832); conditions: DDR2, Nluc C; read-out: Probe EC50
[4] = target: full-length kinase/Nluc fusion proteins (Homo sapiens, UniProt O15197); conditions: EPHB6, Nluc C; read-out: Probe EC50
[5] = target: full-length kinase/Nluc fusion proteins (Homo sapiens, UniProt P41240); conditions: CSK, Nluc C; read-out: Probe EC50
[6] = target: full-length kinase/Nluc fusion proteins (Homo sapiens, UniProt P29317); conditions: EPHA2, Nluc C; read-out: Probe EC50
[7] = target: full-length kinase/Nluc fusion proteins (Homo sapiens, UniProt Q13882); conditions: PTK6, Nluc C; read-out: Probe EC50
[8] = target: full-length kinase/Nluc fusion proteins (Homo sapiens, UniProt P53671); conditions: LIMK2, Nluc C; read-out: Probe EC50
[9] = target: full-length kinase/Nluc fusion proteins (Homo sapiens, UniProt P54646); conditions: PRKAA2, Nluc N; read-out: Probe EC50
[10] = target: full-length kinase/Nluc fusion proteins (Homo sapiens, UniProt O14965); conditions: AURKA, Nluc C; read-out: Probe EC50
[11] = target: full-length kinase/Nluc fusion proteins (Homo sapiens, UniProt Q96GD4); conditions: AURKB, Nluc C; read-out: Probe EC50
[12] = target: full-length kinase/Nluc fusion proteins (Homo sapiens, UniProt O75676); conditions: RPS6KA4 (NP_001287731), Nluc orientation N; read-out: Probe EC50
[13] = target: full-length kinase/Nluc fusion proteins (Homo sapiens, UniProt Q02763); conditions: TEK (NP_000450), Nluc orientation C; read-out: Probe EC50
[14] = target: full-length kinase/Nluc fusion proteins (Homo sapiens, UniProt P28482); conditions: MAPK1, Nluc N; read-out: Probe EC50
[15] = target: full-length kinase/Nluc fusion proteins (Homo sapiens, UniProt P33981); conditions: TTK (NP_003309), Nluc orientation C; read-out: Probe EC50
[16] = target: full-length kinase/Nluc fusion proteins (Homo sapiens, UniProt Q9NY57); conditions: STK32B (NP_060871), Nluc orientation N; read-out: Probe EC50
[17] = target: full-length kinase/Nluc fusion proteins (Homo sapiens, UniProt Q9UQB9); conditions: AURKC, Nluc C; read-out: Probe EC50
[18] = target: full-length kinase/Nluc fusion proteins (Homo sapiens, UniProt P45984); conditions: MAPK9, Nluc N; read-out: Probe EC50
[19] = target: full-length kinase/Nluc fusion proteins (Homo sapiens, UniProt Q16584); conditions: MAP3K11, Nluc N; read-out: Probe EC50
[20] = target: full-length kinase/Nluc fusion proteins (Homo sapiens, UniProt P31751); conditions: AKT2, Nluc C; read-out: Probe EC50
[21] = target: full-length kinase/Nluc fusion proteins (Homo sapiens, UniProt P19784); conditions: CSNK2A2, Nluc C; read-out: Probe EC50
[22] = target: full-length kinase/Nluc fusion proteins (Homo sapiens, UniProt P08069); conditions: IGF1R, Nluc C; read-out: Probe EC50
[23] = target: full-length kinase/Nluc fusion proteins (Homo sapiens, UniProt Q9UK32); conditions: RPS6KA6 (NP_055311), Nluc orientation N; read-out: Probe EC50
[24] = target: full-length kinase/Nluc fusion proteins (Homo sapiens, UniProt P51955); conditions: NEK2, Nluc N; read-out: Probe EC50
[25] = target: full-length kinase/Nluc fusion proteins (Homo sapiens, UniProt Q96PY6); conditions: NEK1, Nluc N; read-out: Probe EC50
[26] = target: full-length kinase/Nluc fusion proteins (Homo sapiens, UniProt O95835); conditions: LATS1, Nluc C; read-out: Probe EC50
[27] = target: full-length kinase/Nluc fusion proteins (Homo sapiens, UniProt Q6P5Z2); conditions: PKN3, Nluc C; read-out: Probe EC50
[28] = target: full-length kinase/Nluc fusion proteins (Homo sapiens, UniProt Q9NRM7); conditions: LATS2, Nluc C; read-out: Probe EC50
[29] = target: full-length kinase/Nluc fusion proteins (Homo sapiens, UniProt P49760); conditions: CLK2, Nluc C; read-out: Probe EC50
[30] = target: full-length kinase/Nluc fusion proteins (Homo sapiens, UniProt P53779); conditions: JNK3, Nluc C; read-out: Probe EC50
[31] = target: full-length kinase/Nluc fusion proteins (Homo sapiens, UniProt Q13043); conditions: STK4 (NP_006273), Nluc orientation N; read-out: Probe EC50
[32] = target: full-length kinase/Nluc fusion proteins (Homo sapiens, UniProt Q9HAZ1); conditions: CLK4, Nluc C; read-out: Probe EC50
Chain of full-length kinase/Nluc fusion proteins (Homo sapiens, UniProt Q9HAZ1) (Q9HAZ1 whole entry, the tested form may be a part): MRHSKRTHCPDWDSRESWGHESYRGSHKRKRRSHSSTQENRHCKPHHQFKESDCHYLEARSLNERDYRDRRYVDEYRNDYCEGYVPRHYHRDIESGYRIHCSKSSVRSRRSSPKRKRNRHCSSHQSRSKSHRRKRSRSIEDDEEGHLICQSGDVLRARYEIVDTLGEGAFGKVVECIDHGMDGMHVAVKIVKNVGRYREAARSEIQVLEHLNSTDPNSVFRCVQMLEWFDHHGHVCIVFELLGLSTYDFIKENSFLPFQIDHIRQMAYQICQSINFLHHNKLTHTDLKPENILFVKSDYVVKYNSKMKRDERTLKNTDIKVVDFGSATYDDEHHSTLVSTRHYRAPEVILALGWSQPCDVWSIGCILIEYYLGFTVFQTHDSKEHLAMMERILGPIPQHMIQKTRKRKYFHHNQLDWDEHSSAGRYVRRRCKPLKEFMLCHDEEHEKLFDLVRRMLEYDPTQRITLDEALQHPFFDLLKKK

Chain of full-length kinase/Nluc fusion proteins (Homo sapiens, UniProt P19784) (P19784 whole entry, the tested form may be a part): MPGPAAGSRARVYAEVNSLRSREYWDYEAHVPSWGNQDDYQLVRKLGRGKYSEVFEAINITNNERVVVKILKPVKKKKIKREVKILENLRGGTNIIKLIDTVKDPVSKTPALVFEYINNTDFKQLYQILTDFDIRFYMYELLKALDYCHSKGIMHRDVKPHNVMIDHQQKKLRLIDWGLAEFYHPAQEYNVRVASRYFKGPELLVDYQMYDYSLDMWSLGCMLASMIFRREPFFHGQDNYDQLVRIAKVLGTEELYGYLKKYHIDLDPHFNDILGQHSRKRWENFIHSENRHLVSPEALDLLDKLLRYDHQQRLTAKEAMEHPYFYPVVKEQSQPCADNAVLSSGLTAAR
Chain of full-length kinase/Nluc fusion proteins (Homo sapiens, UniProt P28482) (P28482 whole entry, the tested form may be a part): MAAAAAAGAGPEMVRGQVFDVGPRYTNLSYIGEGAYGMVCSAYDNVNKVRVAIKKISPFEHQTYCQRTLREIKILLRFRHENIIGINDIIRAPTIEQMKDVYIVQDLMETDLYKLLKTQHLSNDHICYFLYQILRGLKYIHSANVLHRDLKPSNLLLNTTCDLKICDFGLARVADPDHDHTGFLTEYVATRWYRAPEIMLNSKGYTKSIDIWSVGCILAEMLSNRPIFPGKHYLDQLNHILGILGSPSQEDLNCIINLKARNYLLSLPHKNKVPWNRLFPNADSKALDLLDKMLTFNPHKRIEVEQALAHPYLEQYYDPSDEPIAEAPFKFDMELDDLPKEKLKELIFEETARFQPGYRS
Chain of full-length kinase/Nluc fusion proteins (Homo sapiens, UniProt Q13043) (Q13043 whole entry, the tested form may be a part): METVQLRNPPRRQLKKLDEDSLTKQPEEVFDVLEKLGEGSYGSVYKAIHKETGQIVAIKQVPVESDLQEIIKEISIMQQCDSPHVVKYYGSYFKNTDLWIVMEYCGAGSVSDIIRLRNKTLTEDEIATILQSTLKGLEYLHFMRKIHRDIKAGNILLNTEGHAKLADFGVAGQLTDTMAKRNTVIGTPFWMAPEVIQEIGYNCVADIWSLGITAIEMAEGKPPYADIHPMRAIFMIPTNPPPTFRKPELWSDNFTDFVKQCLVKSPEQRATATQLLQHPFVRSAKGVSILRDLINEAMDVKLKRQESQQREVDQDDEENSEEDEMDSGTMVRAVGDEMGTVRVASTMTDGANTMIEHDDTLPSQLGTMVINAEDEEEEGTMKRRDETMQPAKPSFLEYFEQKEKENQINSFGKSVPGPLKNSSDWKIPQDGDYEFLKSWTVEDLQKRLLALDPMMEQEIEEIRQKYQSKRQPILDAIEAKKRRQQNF
Chain of full-length kinase/Nluc fusion proteins (Homo sapiens, UniProt P31751) (P31751 whole entry, the tested form may be a part): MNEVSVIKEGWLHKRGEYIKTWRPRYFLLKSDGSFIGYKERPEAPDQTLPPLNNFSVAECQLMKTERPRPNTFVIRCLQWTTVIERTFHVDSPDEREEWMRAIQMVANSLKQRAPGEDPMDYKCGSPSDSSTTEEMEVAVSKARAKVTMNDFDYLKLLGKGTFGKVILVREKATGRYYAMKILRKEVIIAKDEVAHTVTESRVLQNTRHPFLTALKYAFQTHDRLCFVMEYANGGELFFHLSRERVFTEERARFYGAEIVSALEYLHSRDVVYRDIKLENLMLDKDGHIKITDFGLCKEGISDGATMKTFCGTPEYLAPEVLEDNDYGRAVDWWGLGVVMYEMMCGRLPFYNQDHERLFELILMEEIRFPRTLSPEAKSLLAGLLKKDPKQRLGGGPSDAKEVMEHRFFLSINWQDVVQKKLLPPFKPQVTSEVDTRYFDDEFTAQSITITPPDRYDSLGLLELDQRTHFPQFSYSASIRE
Chain of full-length kinase/Nluc fusion proteins (Homo sapiens, UniProt P08069) (P08069 31-1367): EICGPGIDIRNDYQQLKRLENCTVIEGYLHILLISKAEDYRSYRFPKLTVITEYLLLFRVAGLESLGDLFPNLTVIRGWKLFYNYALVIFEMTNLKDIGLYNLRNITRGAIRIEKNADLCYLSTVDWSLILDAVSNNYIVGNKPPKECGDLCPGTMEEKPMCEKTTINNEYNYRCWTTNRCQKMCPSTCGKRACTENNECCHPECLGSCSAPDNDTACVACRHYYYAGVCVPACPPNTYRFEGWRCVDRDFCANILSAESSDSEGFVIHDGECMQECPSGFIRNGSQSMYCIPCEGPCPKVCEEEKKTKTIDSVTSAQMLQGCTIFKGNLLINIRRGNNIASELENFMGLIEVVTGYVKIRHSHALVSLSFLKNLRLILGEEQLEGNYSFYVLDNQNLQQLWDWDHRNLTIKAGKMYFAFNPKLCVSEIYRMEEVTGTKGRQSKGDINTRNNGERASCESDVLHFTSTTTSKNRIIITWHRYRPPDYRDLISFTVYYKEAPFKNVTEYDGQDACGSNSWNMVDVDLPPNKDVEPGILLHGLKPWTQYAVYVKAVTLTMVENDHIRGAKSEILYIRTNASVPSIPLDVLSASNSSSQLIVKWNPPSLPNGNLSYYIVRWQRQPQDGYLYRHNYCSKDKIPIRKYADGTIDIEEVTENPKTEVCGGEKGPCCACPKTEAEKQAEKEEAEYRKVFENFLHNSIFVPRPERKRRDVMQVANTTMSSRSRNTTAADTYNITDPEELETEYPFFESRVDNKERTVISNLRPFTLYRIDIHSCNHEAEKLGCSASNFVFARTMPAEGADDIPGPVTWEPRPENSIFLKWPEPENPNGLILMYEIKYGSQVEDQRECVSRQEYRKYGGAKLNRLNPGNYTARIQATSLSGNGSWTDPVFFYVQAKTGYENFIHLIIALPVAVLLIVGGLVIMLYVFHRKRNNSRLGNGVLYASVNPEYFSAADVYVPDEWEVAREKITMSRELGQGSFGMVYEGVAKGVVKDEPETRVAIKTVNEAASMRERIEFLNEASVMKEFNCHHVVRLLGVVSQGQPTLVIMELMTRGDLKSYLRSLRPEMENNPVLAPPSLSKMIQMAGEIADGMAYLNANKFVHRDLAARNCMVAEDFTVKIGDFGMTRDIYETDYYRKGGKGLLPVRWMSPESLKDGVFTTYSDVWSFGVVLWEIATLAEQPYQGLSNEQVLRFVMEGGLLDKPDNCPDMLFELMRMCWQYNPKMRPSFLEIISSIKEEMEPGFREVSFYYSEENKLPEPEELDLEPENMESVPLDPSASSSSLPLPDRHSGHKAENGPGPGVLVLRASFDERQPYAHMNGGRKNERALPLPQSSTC
Chain of full-length kinase/Nluc fusion proteins (Homo sapiens, UniProt O15197) (O15197 32-1021): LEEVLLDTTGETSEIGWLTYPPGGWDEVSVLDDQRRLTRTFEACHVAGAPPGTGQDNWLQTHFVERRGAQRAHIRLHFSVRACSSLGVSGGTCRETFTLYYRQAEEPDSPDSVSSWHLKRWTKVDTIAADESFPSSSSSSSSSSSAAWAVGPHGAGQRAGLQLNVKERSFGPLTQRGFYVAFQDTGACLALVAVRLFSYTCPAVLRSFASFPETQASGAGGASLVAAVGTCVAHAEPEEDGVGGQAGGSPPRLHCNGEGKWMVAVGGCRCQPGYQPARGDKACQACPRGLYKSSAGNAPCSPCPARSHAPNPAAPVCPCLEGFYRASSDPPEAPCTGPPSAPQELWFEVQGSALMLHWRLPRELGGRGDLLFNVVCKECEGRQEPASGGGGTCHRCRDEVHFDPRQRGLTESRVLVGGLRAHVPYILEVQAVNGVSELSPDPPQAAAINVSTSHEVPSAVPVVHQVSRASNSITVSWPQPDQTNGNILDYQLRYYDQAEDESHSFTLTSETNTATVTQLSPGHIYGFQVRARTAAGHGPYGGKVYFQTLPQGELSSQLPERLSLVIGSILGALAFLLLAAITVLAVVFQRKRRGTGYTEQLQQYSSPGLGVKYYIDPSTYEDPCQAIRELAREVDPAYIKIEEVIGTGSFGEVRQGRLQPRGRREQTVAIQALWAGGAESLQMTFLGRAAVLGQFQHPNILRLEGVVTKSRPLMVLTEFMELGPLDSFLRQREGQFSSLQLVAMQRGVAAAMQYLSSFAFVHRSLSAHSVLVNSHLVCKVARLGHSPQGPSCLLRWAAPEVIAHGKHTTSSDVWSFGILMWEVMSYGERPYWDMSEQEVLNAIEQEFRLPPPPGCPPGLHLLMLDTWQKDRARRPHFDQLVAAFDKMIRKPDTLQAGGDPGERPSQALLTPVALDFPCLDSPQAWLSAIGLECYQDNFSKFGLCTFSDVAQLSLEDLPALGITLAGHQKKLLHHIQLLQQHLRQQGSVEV
Chain of full-length kinase/Nluc fusion proteins (Homo sapiens, UniProt P54646) (P54646 whole entry, the tested form may be a part): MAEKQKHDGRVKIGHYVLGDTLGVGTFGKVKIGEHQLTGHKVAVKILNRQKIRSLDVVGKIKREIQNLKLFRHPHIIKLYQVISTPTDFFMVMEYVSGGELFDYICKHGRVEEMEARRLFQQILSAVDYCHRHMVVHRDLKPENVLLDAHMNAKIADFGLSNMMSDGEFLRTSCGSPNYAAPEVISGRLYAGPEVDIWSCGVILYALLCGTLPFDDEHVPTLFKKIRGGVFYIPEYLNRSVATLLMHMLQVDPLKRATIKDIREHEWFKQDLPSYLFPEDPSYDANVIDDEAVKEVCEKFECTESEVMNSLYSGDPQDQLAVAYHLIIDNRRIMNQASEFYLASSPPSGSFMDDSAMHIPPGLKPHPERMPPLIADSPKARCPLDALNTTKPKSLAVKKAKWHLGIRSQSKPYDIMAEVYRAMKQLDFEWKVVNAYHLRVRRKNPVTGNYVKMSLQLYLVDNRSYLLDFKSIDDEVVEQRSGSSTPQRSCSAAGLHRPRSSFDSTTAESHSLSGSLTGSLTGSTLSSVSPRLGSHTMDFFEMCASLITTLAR

EC50 [1]: > 1000 nM | EC50 [2]: 300 nM | EC50 [3]: 100 nM | EC50 [4]: > 1000 nM | EC50 [5]: > 1000 nM | EC50 [6]: 60 nM | EC50 [7]: 200 nM | EC50 [8]: > 1000 nM
Structure (SMILES): Cc1nc(Nc2ncc(C(=O)Nc3c(C)cccc3Cl)s2)cc(N2CCN(CCOCCNC(=O)CCc3ccc4n3[B-](F)(F)[N+]3=C(c5ccc[nH]5)C=CC3=C4)CC2)n1 [Energy Transfer Probe 6, 2-((6-(4-(2-(2-aminoethoxy)ethyl)piperazin-1-yl)-2-methylpyrimidin-4-yl)amino)-N-(2-chloro-6-methylphenyl)thiazole-5-carboxamide-NanoBRET 590]

EC50 [9]: > 1000 nM | EC50 [10]: 40 nM | EC50 [11]: 10 nM | EC50 [12]: 100 nM | EC50 [13]: 400 nM | EC50 [14]: > 1000 nM | EC50 [15]: 300 nM | EC50 [16]: 600 nM | EC50 [17]: 20 nM | EC50 [18]: 500 nM | EC50 [19]: > 1000 nM | EC50 [20]: > 1000 nM | EC50 [21]: > 1000 nM | EC50 [22]: > 1000 nM | EC50 [23]: 400 nM | EC50 [24]: > 1000 nM | EC50 [25]: > 1000 nM | EC50 [26]: 600 nM | EC50 [27]: > 1000 nM | EC50 [28]: 300 nM | EC50 [29]: > 1000 nM | EC50 [30]: > 1000 nM | EC50 [31]: > 1000 nM | EC50 [32]: 300 nM
Structure (SMILES): CNC(=O)c1ccccc1Nc1nc(Nc2ccc(N3CCN(C(=O)CCOCCOCCOCCOCCNC(=O)CCc4ccc5n4[B-](F)(F)[N+]4=C(c6ccc[nH]6)C=CC4=C5)CC3)cc2)ncc1Cl [Energy Transfer Probe 5, 2-((2-((4-(4-(1-amino-3,6,9,12-tetraoxapentadecan-15-oyl)piperazin-1-yl)phenyl)amino)-5-chloropyrimidin-4-yl)amino)-N-methylbenzamide-NanoBRET 590]

Source: publication PMC5814754, “Quantitative, Wide-Spectrum Kinase Profiling in Live Cells for Assessing the Effect of Cellular ATP on Target Engagement” (Cell Chemical Biology, 2018)
